The record followed here is patent US20160030498A1, “HERBAL COMPOSITIONS FOR TREATING PAIN AND SKIN DISORDERS” (RUPAK ENTERPRISES (P) LIMITED, priority 2013, published 2016).

Test [1] relates to proliferative dermatological disorders. Nature of the test: Use in human subjects suffering from dermatological disorders. Conditions: humans. Type of test: in vivo. From the text:
Another embodiment of the present invention refers to method of use of a composition comprising of Acetyl-11-keto-beta-boswellic acid (BOSWELLIC ACID) and Bakuchiol for alleviation and management of skin rashes, itching, and boils resulting from skin proliferative disorders, specifically psoriasis, atopic dermatitis. For example, the method of use disclosed herein may be administered alongside steroidal therapy during the steroid dose tapering phase, followed by standalone administration of the combination provides complete remission of skin conditions, and is maintained that upon continuance of recommended dosage. In certain embodiments the skin disorder may be resulting from irritants, allergens, trigger, or autoimmune reasons, and the combination defined herein is effective in all of the above. The present invention includes the formulation of a Bakuchiol and BOSWELLIC ACID combination in an oral dosage form or, lotion, cream, ointment which can be applied topically.

Another test relates to LOX. Nature of the test: LOX inhibition assay. Type of test: biochemical.

In general, IC50 refers to the concentration that inhibits the measured activity by half.

Regarding 3-o-Acetyl-11-keto-beta-boswellic acid, the “Remission of proliferative dermatological conditions” value in test [1] is “substantial remission”.

For `C=C[C@@](C)(/C=C/c1ccc(O)cc1)CCC=C(C)C` [Bakuchiol], the IC50 in the test with LOX was 3.1 µM.
